Measurements: patent publication US20260297083A1, “SUBSTITUTED ACETYLENE COMPOUND DERIVATIVES AND THEIR PHARMACEUTICAL USE” (AVELOS THERAPEUTICS INC., priority 2023, published 2026)

target: T1, Polθ polymerase domain (amino acids 1792-2590) (Homo sapiens, UniProt O75417); experiment: Picogreen assay of Polθ polymerase activity; format: biochemical; details: 12-point concentration response, 90 minutes incubation at room temperature, 8 nM Polθ in 2×polymerase mixture, read-out: PolQ IC50
T1 construct: 10×Histidine-SUMO (N, cleaved yes); made in house; host or cells: E. coli
T1 sequence (O75417 1792-2590): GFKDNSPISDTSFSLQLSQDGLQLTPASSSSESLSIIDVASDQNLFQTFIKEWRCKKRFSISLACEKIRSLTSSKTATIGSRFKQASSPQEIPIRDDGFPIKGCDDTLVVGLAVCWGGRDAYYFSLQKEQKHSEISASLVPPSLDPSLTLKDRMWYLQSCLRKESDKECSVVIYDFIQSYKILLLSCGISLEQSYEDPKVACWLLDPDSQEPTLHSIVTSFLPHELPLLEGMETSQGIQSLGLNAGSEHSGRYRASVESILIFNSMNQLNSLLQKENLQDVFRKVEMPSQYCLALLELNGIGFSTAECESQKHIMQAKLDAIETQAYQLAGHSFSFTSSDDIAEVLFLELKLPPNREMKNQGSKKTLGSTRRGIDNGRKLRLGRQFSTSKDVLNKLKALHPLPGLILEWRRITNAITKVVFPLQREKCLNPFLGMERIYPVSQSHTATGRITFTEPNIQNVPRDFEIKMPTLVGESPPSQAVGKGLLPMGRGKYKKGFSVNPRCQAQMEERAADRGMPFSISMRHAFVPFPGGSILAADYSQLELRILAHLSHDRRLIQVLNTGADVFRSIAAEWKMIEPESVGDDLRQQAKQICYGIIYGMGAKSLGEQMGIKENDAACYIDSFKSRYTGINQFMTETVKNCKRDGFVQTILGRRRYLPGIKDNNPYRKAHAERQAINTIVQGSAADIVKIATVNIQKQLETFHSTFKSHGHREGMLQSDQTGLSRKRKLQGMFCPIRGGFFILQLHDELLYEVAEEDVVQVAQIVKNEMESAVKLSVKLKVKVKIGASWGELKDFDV
Procedure, shortened: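 E. coli-expressed polymerase domain with His-SUMO tag removed; 2× enzyme mix (8 nM) combined with 2× substrate mix (100 nM annealed primer/template DNA, 40 uM dNTPs). Buffer 25 mM Tris-HCl pH 7.5, 12.5 mM NaCl, 0.5 mM MgCl2, 1 mM DTT. Reaction 90 min at room temperature, then EDTA/Picogreen stain read at 485/520 nm; 12-point IC50.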

IC50 [µM]	SMILES
0.001 to 0.05	Cc1cc(C(F)(F)F)cc(N2[C@H](C(=O)N(CC#Cc3cnc(C(N)=O)nn3)c3ccc(F)c(C)c3)CCS2(=O)=O)n1 [compound 123]
0.001 to 0.05	Cc1cc(C(F)(F)F)cc(N2[C@H](C(=O)N(CC#Cc3ncc(C(N)=O)nn3)c3ccc(F)c(C)c3)CCS2(=O)=O)n1 [compound 124]
0.001 to 0.05	Cc1cc(N(CC#Cc2cnc(N3CCOCC3)cn2)C(=O)[C@@H]2CCS(=O)(=O)N2c2cc(C(F)(F)F)cc(C(F)(F)F)n2)ccc1F [compound 125]
0.001 to 0.05	Cc1cc(N(CC#Cc2ccc(C(N)=O)nc2)C(=O)[C@@H]2CCS(=O)(=O)N2c2cc(C(F)(F)F)cc(C(F)(F)F)n2)ccc1F [compound 126]
0.001 to 0.05	C=CC(=O)Nc1cncc(C#CCN(C(=O)[C@@H]2CCS(=O)(=O)N2c2cc(C(F)(F)F)cc(C)n2)c2ccc(F)c(C)c2)c1 [compound 127]
0.001 to 0.05	C=CC(=O)Nc1cncc(C#CCN(C(=O)[C@@H]2CCS(=O)(=O)N2c2cc(C(F)(F)F)cc(C)n2)c2ccc(F)c(C)c2)n1 [compound 128]
0.001 to 0.05	C=CC(=O)Nc1ccc(C#CCN(C(=O)[C@@H]2CCS(=O)(=O)N2c2cc(C(F)(F)F)cc(C)n2)c2ccc(F)c(C)c2)nn1 [compound 129]
0.001 to 0.05	C=C(F)C(=O)Nc1cncc(C#CCN(C(=O)[C@@H]2CCS(=O)(=O)N2c2cc(C(F)(F)F)cc(C)n2)c2ccc(F)c(C)c2)c1 [compound 130]
0.001 to 0.05	Cc1cc(C(F)(F)F)cc(N2[C@H](C(=O)N(CC#Cc3ccc(Cc4ccc(C(N)=O)nn4)nc3)c3ccc(F)c(C)c3)CCS2(=O)=O)n1 [compound 131]
0.001 to 0.05	Cc1cc(C(F)(F)F)cc(N2[C@H](C(=O)N(CC#Cc3ccc(Cc4ncc(C(N)=O)cn4)nc3)c3ccc(F)c(C)c3)CCS2(=O)=O)n1 [compound 132]
0.001 to 0.05	Cc1cc(C(F)(F)F)cc(N2[C@H](C(=O)N(CC#Cc3ccc(Cc4ccc(=O)[nH]n4)nc3)c3ccc(F)c(C)c3)CCS2(=O)=O)n1 [compound 133]
0.001 to 0.05	Cc1cc(C(F)(F)F)cc(N2[C@H](C(=O)N(CC#Cc3ccc(Cc4cnc5ccc(=O)[nH]c5c4)nc3)c3ccc(F)c(C)c3)CCS2(=O)=O)n1 [compound 134]
0.001 to 0.05	Cc1cc(C(F)(F)F)cc(N2[C@H](C(=O)N(CC#Cc3ccc(Cc4cccc5c(=O)[nH]cnc45)nc3)c3ccc(F)c(C)c3)CCS2(=O)=O)n1 [compound 135]
0.001 to 0.05	Cc1cc(C(F)(F)F)cc(N2[C@H](C(=O)N(CC#Cc3ccc(Cn4cc5cccc(C(N)=O)c5n4)nc3)c3ccc(F)c(C)c3)CCS2(=O)=O)n1 [compound 136]
0.001 to 0.05	C=CC(=O)Nc1cccc(C#CCN(C(=O)[C@@H]2CCS(=O)(=O)N2c2cc(C(F)(F)F)cc(C)n2)c2ccc(F)c(C)c2)n1 [compound 137, (S)-N-(3-(6-acrylamidopyridin-2-yl)prop-2-yn-1-yl)-N-(4-fluoro-3-methylphenyl)-2-(6-methyl-4-(trifluoromethyl)pyridin-2-yl)isothiazolidine-3-carboxamide 1,1-dioxide]
0.001 to 0.05	C=CC(=O)Nc1ccnc(C#CCN(C(=O)[C@@H]2CCS(=O)(=O)N2c2cc(C(F)(F)F)cc(C)n2)c2ccc(F)c(C)c2)c1 [compound 138, (S)-N-(3-(4-acrylamidopyridin-2-yl)prop-2-yn-1-yl)-N-(4-fluoro-3-methylphenyl)-2-(6-methyl-4-(trifluoromethyl)pyridin-2-yl)isothiazolidine-3-carboxamide 1,1-dioxide]
0.001 to 0.05	C=CC(=O)Nc1cc(C#CCN(C(=O)[C@@H]2CCS(=O)(=O)N2c2cc(C(F)(F)F)cc(C)n2)c2ccc(F)c(C)c2)ccn1 [compound 139, (S)-N-(3-(2-acrylamidopyridin-4-yl)prop-2-yn-1-yl)-N-(4-fluoro-3-methylphenyl)-2-(6-methyl-4-(trifluoromethyl)pyridin-2-yl)isothiazolidine-3-carboxamide 1,1-dioxide]
0.001 to 0.05	C=CC(=O)Nc1ccc(C#CCN(C(=O)[C@@H]2CCS(=O)(=O)N2c2cc(C(F)(F)F)cc(C)n2)c2ccc(F)c(C)c2)nc1 [compound 140, (S)-N-(3-(5-acrylamidopyridin-2-yl)prop-2-yn-1-yl)-N-(4-fluoro-3-methylphenyl)-2-(6-methyl-4-(trifluoromethyl)pyridin-2-yl)isothiazolidine-3-carboxamide 1,1-dioxide]
0.001 to 0.05	C=CC(=O)Nc1ccc(C#CCN(C(=O)[C@@H]2CCS(=O)(=O)N2c2cc(C(F)(F)F)cc(C)n2)c2ccc(F)c(C)c2)cn1 [compound 141, (S)-N-(3-(6-acrylamidopyridin-3-yl)prop-2-yn-1-yl)-N-(4-fluoro-3-methylphenyl)-2-(6-methyl-4-(trifluoromethyl)pyridin-2-yl)isothiazolidine-3-carboxamide 1,1-dioxide]
0.001 to 0.05	C=CC(=O)Nc1cccnc1C#CCN(C(=O)[C@@H]1CCS(=O)(=O)N1c1cc(C(F)(F)F)cc(C)n1)c1ccc(F)c(C)c1 [compound 142, (S)-N-(3-(3-acrylamidopyridin-2-yl)prop-2-yn-1-yl)-N-(4-fluoro-3-methylphenyl)-2-(6-methyl-4-(trifluoromethyl)pyridin-2-yl)isothiazolidine-3-carboxamide 1,1-dioxide]

Second part, the compound before the results:

SMILES	IC50 [µM]
Cc1cc(C(F)(F)F)cc(N2[C@H](C(=O)N(CC#Cc3ncnc(N4CCOCC4)n3)c3ccc(F)c(C)c3)CCS2(=O)=O)n1 [compound 103]	> 0.101
Cc1cc(C(F)(F)F)cc(N2[C@H](C(=O)N(CC#Cc3nc(C(N)=O)co3)c3ccc(F)c(C)c3)CCS2(=O)=O)n1 [compound 104]	0.001 to 0.05
Cc1cc(C(F)(F)F)cc(N2[C@H](C(=O)N(CC#Cc3ccc(C(N)=O)cc3)c3ccc(F)c(C)c3)CCS2(=O)=O)n1 [compound 105]	0.001 to 0.05
Cc1cc(C(F)(F)F)cc(N2[C@H](C(=O)N(CC#Cc3cccc(C(N)=O)c3)c3ccc(F)c(C)c3)CCS2(=O)=O)n1 [compound 106]	0.001 to 0.05
Cc1cccc(N(CC#Cc2ccc(N)nn2)C(=O)[C@@H]2CN(C)S(=O)(=O)N2c2cc(C(F)(F)F)cc(C)n2)c1 [compound 107]	0.001 to 0.05
Cc1cccc(N(CC#Cc2cnc(N)cn2)C(=O)[C@@H]2CN(C)S(=O)(=O)N2c2cc(C(F)(F)F)cc(C)n2)c1 [compound 108]	0.051 to 0.1
Cc1cc(C(F)(F)F)cc(N2[C@H](C(=O)N(CC#Cc3ccc(N)nn3)c3ccc(F)c(C)c3)CN(C)S2(=O)=O)n1 [compound 109]	0.001 to 0.05
Cc1cc(C(F)(F)F)cc(N2[C@H](C(=O)N(CC#Cc3ccc(N)nn3)c3ccc(F)c(C)c3)CN(C(C)C)S2(=O)=O)n1 [compound 110]	0.001 to 0.05
Cc1cc(C(F)(F)F)cc(N2[C@H](C(=O)N(CC#Cc3ccc(C(=O)N(C)C)nc3)c3ccc(F)c(C)c3)CCS2(=O)=O)n1 [compound 111]	0.001 to 0.05
Cc1cc(C(F)(F)F)cc(N2[C@H](C(=O)N(CC#Cc3ccc(C(N)=O)nc3)C(C)(C)c3ccc(F)c(C)c3)CCS2(=O)=O)n1 [compound 112]	> 0.101
Cc1cc(C(F)(F)F)cc(N2[C@H](C(=O)N(CC#Cc3ccc(C(N)=O)nc3)Cc3ccc(F)c(C)c3)CCS2(=O)=O)n1 [compound 113]	> 0.101
Cc1cc(C(F)(F)F)cc(N2[C@@H](C(=O)N(CC#Cc3ccc(C(N)=O)nc3)Cc3ccc(F)c(C)c3)CCS2(=O)=O)n1 [compound 114]	> 0.101
Cc1cc(C(F)(F)F)cc(N2[C@H](C(=O)N(CC#Cc3ccc(C#N)nc3)c3ccc(F)c(C)c3)CCS2(=O)=O)n1 [compound 115]	0.001 to 0.05
Cc1cc(C(F)(F)F)cc(N2[C@H](C(=O)N(CC#Cc3ccc(-c4ncon4)nc3)c3ccc(F)c(C)c3)CCS2(=O)=O)n1 [compound 116]	0.001 to 0.05
Cc1cc(C(F)(F)F)cc(N2[C@H](C(=O)N(CC#Cc3ccc(C(N)=O)nc3C)c3ccc(F)c(C)c3)CCS2(=O)=O)n1 [compound 117]	0.001 to 0.05
Cc1cc(C(F)(F)F)cc(N2[C@H](C(=O)N(CC#Cc3ncc(C(N)=O)nc3C)c3ccc(F)c(C)c3)CCS2(=O)=O)n1 [compound 118]	0.001 to 0.05
Cc1cc(C(F)(F)F)cc(N2[C@H](C(=O)N(CC#Cc3nc(C)c(C(N)=O)nc3C)c3ccc(F)c(C)c3)CCS2(=O)=O)n1 [compound 119]	0.001 to 0.05
Cc1cc(C(F)(F)F)cc(N2[C@H](C(=O)N(CC#Cc3cccc(C(N)=O)n3)c3ccc(F)c(C)c3)CCS2(=O)=O)n1 [compound 120]	0.001 to 0.05
Cc1cc(C(F)(F)F)cc(N2[C@H](C(=O)N(CC#Cc3cnc(C(N)=O)c(C#N)c3)c3ccc(F)c(C)c3)CCS2(=O)=O)n1 [compound 121]	0.001 to 0.05
Cc1cc(C(F)(F)F)cc(N2[C@H](C(=O)N(CC#Cc3cc(F)c(C(N)=O)cn3)c3ccc(F)c(C)c3)CCS2(=O)=O)n1 [compound 122]	0.001 to 0.05
